Source: ChEMBL document CHEMBL4665693, “Amentotaxins C-V, Structurally Diverse Diterpenoids from the Leaves and Twigs of the Vulnerable Conifer Amentotaxus argotaenia and Their Cytotoxic Effects” (J Nat Prod, 2020)

How the values were obtained:
Assay type in all cases: functional, cell-based
[1] = test system: MDA-MB-231; test: Cytotoxicity against human MDA-MB-231 cells assessed as reduction in cell viability incubated for 48 hrs by MTT assay; conditions: MDA-MB-231, 48 h
[2] = test system: Huh-7; test: Cytotoxicity against human Huh-7 cells assessed as reduction in cell viability incubated for 48 hrs by MTT assay; conditions: Huh-7, 48 h
[3] = test system: HCT-116; test: Cytotoxicity against human HCT-116 cells assessed as reduction in cell viability incubated for 48 hrs by MTT assay; conditions: HCT-116, 48 h
[4] = test system: SK-OV-3; test: Cytotoxicity against human SK-OV-3 cells assessed as reduction in cell viability incubated for 48 hrs by MTT assay; conditions: SK-OV-3, 48 h
[5] = test system: A549; test: Cytotoxicity against human A549 cells assessed as reduction in cell viability incubated for 48 hrs by MTT assay; conditions: A549, 48 h
[6] = test system: HeLa; test: Cytotoxicity against human HeLa cells assessed as reduction in cell viability incubated for 48 hrs by MTT assay

For `C=C1[C@H](O)C[C@@H]2[C@@](C)(CO)CCC[C@@]2(C)[C@@H]1C/C=C(\C)C=O`, which IC50 [1] is on record?
Its IC50 is 1.5 µM.

What about the IC50 [2] of the same compound?
Its IC50 is greater than 10 µM.

And the IC50 [3]?
The IC50 was greater than 10 µM.

What about the IC50 [4] of the same compound?
Its IC50 is greater than 10 µM.

What about the IC50 [5] of the same compound?
The IC50 was greater than 10 µM.

And the IC50 [6]?
Its IC50 is greater than 10 µM.

What does the source list for `C=C1C(=O)[C@]23CC[C@@H]4[C@@](C)(CO)CCC[C@@]4(C)[C@@H]2CC[C@H]1C3`?
IC50 [1]: 10 µM; IC50 [2]: 9.7 µM; IC50 [3]: 2.9 µM; IC50 [4]: 6.9 µM; IC50 [5]: 8.1 µM; IC50 [6]: > 10 µM

How did the IC50 [1] turn out when `C=C1C(=O)[C@]23CC[C@H]4[C@@](C)(CC[C@@H](O)[C@@]45CO5)[C@@H]2CC[C@H]1C3` was run?
Its IC50 is 6.8 µM.

What about the IC50 [2] of the same compound?
The IC50 was 4.1 µM.

What about the IC50 [3] of the same compound?
The IC50 was 1.9 µM.

And the IC50 [4]?
The IC50 was 2.9 µM.

And the IC50 [5]?
Its IC50 is 9.8 µM.

What about the IC50 [6] of the same compound?
The IC50 was 5.1 µM.

`CC(=O)O[C@H]1C(=O)[C@@]2(C)[C@H]([C@H](OC(=O)c3ccccc3)[C@]3(O)C[C@H](OC(=O)[C@H](O)[C@@H](NC(=O)c4ccccc4)c4ccccc4)C(C)=C1C3(C)C)[C@]1(OC(C)=O)CO[C@@H]1C[C@@H]2O` [PACLITAXEL] was tested. Which IC50 [2] did it give?
Its IC50 is 0.005 µM.

And the IC50 [6]?
The IC50 was 0.004 µM.

For `CC(C)c1cc2c(cc1O)[C@@]1(C)CC[C@H](O)C(C)(C)[C@@H]1CC2=O`, which IC50 [1] is on record?
Its IC50 is 1.6 µM.

And the IC50 [2]?
The IC50 was greater than 10 µM.

What about the IC50 [3] of the same compound?
The IC50 was greater than 10 µM.

What about the IC50 [4] of the same compound?
Its IC50 is greater than 10 µM.

And the IC50 [5]?
Its IC50 is greater than 10 µM.

And the IC50 [6]?
The IC50 was greater than 10 µM.

With `C=C1[C@H](O)C[C@@H]2[C@@](C)(CO)CCC[C@@]2(C)[C@@H]1C[C@H]1OC(=O)C=C1C` as the compound, how does the IC50 [1] read?
Its IC50 is 1.6 µM.

And the IC50 [2]?
The IC50 was greater than 10 µM.

And the IC50 [3]?
Its IC50 is greater than 10 µM.

And the IC50 [4]?
Its IC50 is greater than 10 µM.

And the IC50 [5]?
Its IC50 is greater than 10 µM.

What about the IC50 [6] of the same compound?
The IC50 was greater than 10 µM.

With `C=C1[C@H](O)C[C@@H]2[C@@](C)(CO)CCC[C@@]2(C)[C@@H]1/C=C/C(C)=O` as the compound, how does the IC50 [1] read?
The IC50 was 3 µM.

What about the IC50 [2] of the same compound?
The IC50 was greater than 10 µM.

And the IC50 [3]?
Its IC50 is greater than 10 µM.

What about the IC50 [4] of the same compound?
Its IC50 is greater than 10 µM.

What about the IC50 [5] of the same compound?
The IC50 was greater than 10 µM.

What about the IC50 [6] of the same compound?
Its IC50 is greater than 10 µM.

What does the source list for `C=C1C[C@@]23C[C@@H]1CC[C@H]2[C@]1(C)CCC[C@@](C)(C(=O)O)[C@H]1[C@@H](O)[C@@H]3O`?
IC50 [1]: > 10 µM; IC50 [2]: > 10 µM; IC50 [3]: > 10 µM; IC50 [4]: > 10 µM; IC50 [5]: > 10 µM; IC50 [6]: > 10 µM
